Assay results as given in US20140057915A1, “KINASE INHIBITORS” (TOPIVERT PHARMA LIMITED, priority 2012, published 2014).
Read-outs that look alike come from different tables or passages of the source.

Assays:
IL-2 release, PBMCs = assay: IL-2 release in CD3/CD28 stimulated PBMC cells; assay type: cell-based; settings: Homo sapiens, read-out: IC50 Values for Inhibition of Cytokine Release, PBMCs, IL-2
cSrc = cSrc (Homo sapiens, UniProt P12931); assay: c-Src enzyme inhibition (FRET); assay type: biochemical
cSrc, sequence (P12931 whole entry): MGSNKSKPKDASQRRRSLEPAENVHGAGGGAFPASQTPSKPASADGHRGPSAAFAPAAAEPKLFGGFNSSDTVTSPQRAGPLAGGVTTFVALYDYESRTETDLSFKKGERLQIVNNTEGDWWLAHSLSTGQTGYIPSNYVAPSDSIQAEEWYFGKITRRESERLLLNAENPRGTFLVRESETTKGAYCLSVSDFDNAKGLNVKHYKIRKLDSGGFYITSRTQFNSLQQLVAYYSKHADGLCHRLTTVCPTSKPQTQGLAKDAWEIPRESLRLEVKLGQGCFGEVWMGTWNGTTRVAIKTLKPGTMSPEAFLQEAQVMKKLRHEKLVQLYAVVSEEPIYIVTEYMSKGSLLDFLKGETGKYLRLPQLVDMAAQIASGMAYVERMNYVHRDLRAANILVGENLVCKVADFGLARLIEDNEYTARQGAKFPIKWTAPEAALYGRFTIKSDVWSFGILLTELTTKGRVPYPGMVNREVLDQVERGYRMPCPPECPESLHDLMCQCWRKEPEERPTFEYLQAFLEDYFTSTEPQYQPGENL
Procedure, shortened: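 Kinase activity is measured on a dual-labelled synthetic peptide by FRET. ATP is supplied as an 800 μM solution for c-Src and a 60 μM solution for Syk. Compound is tested at four added concentrations, 4 to 0.004 μg/mL.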

PBMC cells = assay: Cell mitosis assay; assay type: cell-based; settings: Homo sapiens, read-out: % Inhibition of mitosis in PBMC cells at 5 μg/mL
Procedure, shortened: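 Healthy-donor PBMCs (3 million cells per sample) stimulated with 2% PHA for 48 hr, then exposed 20 hr to varying compound concentrations. Demecolcine (0.1 μg/mL) added 2 hr before collection to arrest cells in metaphase; read by flow cytometry gated on lymphocytes.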

[1] = system: TNFα release, d-U937 cells; assay: LPS-induced TNFα release in d-U937 cells; assay type: cell-based; settings: Homo sapiens, dU937; for EC50: relative to 10 μg/mL BIRB796, Table 4c1, read-out: LPS Induced Release of Cytokine in d-U937 Cells, TNFα REC50; for IC50: Table 4c2, different laboratory, read-out: IC50 Values for Inhibition of Cytokine Release, dU937 cells, TNFα
Procedure, shortened: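 U937 cells differentiated with PMA (100 ng/mL, 48–72 hr), pre-treated with compound for 2 hr, then stimulated with E. coli LPS (0.1 μg/mL) for 4 hr. Supernatant cytokine measured by sandwich ELISA; inhibition versus vehicle control, REC50 from concentration-response curve.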

[2] = system: IL-8 release, d-U937 cells; assay: LPS-induced IL-8 release in d-U937 cells; assay type: cell-based; settings: Homo sapiens, dU937
Procedure, shortened: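 IL-8 release after a 4 hr challenge with LPS (0.1 μg/mL, E. coli 0111:B4) following a 2 hr compound pretreatment. Cells were human U937 monocytes differentiated to macrophage-type with PMA 100 ng/mL for 48–72 hr. Relative 50% effective concentration derived from concentration–response data.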

d-U937 cells = assay: Cell viability: MTT assay; assay type: cell-based, human; settings: 1 μg/mL
Procedure, shortened: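 Differentiated U937 cells exposed to compound at 1 or 10 μg/mL, either 4 h in 5% FCS or 24 h in 10% FCS RPMI1640. MTT then added for 1 h, formazan dissolved in DMSO and read at 550 nm. Viability loss given as % versus 0.5% DMSO vehicle; apparent gains appear negative.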

GSK3α = GSK3α (Homo sapiens, UniProt P49840); assay: GSK 3α enzyme inhibition (FRET), Method 2; assay type: biochemical; settings: Table 4a2, different laboratory
GSK3α, sequence (P49840 whole entry): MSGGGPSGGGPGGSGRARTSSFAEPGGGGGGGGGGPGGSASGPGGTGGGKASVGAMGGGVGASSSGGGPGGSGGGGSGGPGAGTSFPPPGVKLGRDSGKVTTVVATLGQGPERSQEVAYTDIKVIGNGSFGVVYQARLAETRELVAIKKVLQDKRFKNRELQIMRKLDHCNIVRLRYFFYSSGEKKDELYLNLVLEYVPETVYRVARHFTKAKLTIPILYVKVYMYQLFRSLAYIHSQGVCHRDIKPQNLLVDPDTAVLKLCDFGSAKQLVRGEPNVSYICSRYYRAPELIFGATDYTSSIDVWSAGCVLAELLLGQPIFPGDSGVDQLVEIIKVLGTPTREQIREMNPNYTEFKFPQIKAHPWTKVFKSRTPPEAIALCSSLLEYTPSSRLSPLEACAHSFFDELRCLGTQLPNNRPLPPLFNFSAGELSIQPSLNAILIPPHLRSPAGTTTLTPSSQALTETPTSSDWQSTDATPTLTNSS

IL-8 release, PBMCs = assay: LPS-induced IL-8 release in PBMC cells; assay type: cell-based; settings: Homo sapiens, LPS stimulated, read-out: IC50 Values for Inhibition of Cytokine Release, PBMCs, IL-8
Procedure, shortened: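 PBMCs from healthy donors pretreated with compound for 2 h, then stimulated with 1 ng/ml LPS (E. coli 0111:B4) for 24 h at 37 °C, 5% CO2. Supernatant IL-8 and TNFα measured by sandwich ELISA with fluorescence read-out.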

[3] = Table 4a2, different laboratory
[4] = Table 4c1, read-out: LPS Induced Release of Cytokine in d-U937 Cells, IL-8 IC50
[5] = Table 4c2, different laboratory, read-out: IC50 Values for Inhibition of Cytokine Release, dU937 cells, IL-8

| IC50 (cSrc; Table 4a1) | IC50 (cSrc; [3]) | EC50 [1] | IC50 [2, 4] | IC50 (GSK3α) | IC50 [1] | IC50 [2, 5] | SMILES | IC50 (IL-2 release, PBMCs) | inhibition at 5 µg/mL (PBMC cells) | Cell viability at time point in d-U937 cells, 4 h (d-U937 cells) | Cell viability at time point in d-U937 cells, 24 h (d-U937 cells) | IC50 (IL-8 release, PBMCs) |
| --- | --- | --- | --- | --- | --- | --- | --- | --- | --- | --- | --- | --- |
| 2 nM | 21 nM | 0.9 nM | 1.4 nM | 6510 nM |  |  | COc1cc(Nc2nccc(Oc3ccc(NC(=O)Nc4cc(C(F)(F)C(F)(F)F)nn4-c4ccc(C)cc4)c4ccccc34)n2)cc(C(=O)NCCN2CCOCC2)c1 [Example 9] | 132 nM | 20.7% | −ve (−ve and +ve indicate that the value is below and above respectively, the no significant effect threshold, defined as 30% inhibition at 1 μg/mL at the time point indicated) | −ve (−ve and +ve indicate that the value is below and above respectively, the no significant effect threshold, defined as 30% inhibition at 1 μg/mL at the time point indicated) | 2.3 nM |
|  | 14 nM |  |  | 11300 nM | 1.1 nM | 2.4 nM | C#Cc1cc(Nc2nccc(Oc3ccc(NC(=O)Nc4cc(C(C)C)nn4-c4ccc(C)cc4)c4ccccc34)n2)cc(C(=O)NCCN2CCOCC2)c1 [Example 46, 3-ethynyl-5-((4-((4-(3-(3-isopropyl-1-(p-tolyl)-1H-pyrazol-5-yl)ureido)naphthalen-1-yl)oxy)pyrimidin-2-yl)amino)-N-(2-morpholinoethyl)benzamide] | 59.5 nM | -6.7% | −ve (−ve and +ve indicate that the value is below and above respectively, the no significant effect threshold, defined as 30% inhibition at 1 μg/mL at the time point indicated) | −ve (−ve and +ve indicate that the value is below and above respectively, the no significant effect threshold, defined as 30% inhibition at 1 μg/mL at the time point indicated) | 1.1 nM |
| < 1 nM | 41 nM | 0.8 nM | 0.3 nM | ≥ 13200 nM | 1.1 nM | 1.4 nM | COc1cc(Nc2nccc(Oc3ccc(NC(=O)Nc4cc(C(C)C)nn4-c4ccc(C)cc4)c4ccccc34)n2)cc(C(=O)NCCN2CCOCC2)c1 [Example 8, 3-((4-((4-(3-(3-Isopropyl-1-(p-tolyl)-1H-pyrazol-5-yl)ureido)naphthalen-1-yl)oxy)pyrimidin-2-yl)amino)-5-methoxy-N-(2-morpholinoethyl)benzamide] | 35.3 nM | 15.3% | −ve (−ve and +ve indicate that the value is below and above respectively, the no significant effect threshold, defined as 30% inhibition at 1 μg/mL at the time point indicated) | −ve (−ve and +ve indicate that the value is below and above respectively, the no significant effect threshold, defined as 30% inhibition at 1 μg/mL at the time point indicated) | 1.8 nM |
| 5 nM | 27 nM | 0.7 nM | 1.8 nM | 6970 nM | 2.1 nM | 2.8 nM | COc1cc(Nc2cc(Oc3ccc(NC(=O)Nc4cc(C(C)(C)C)nn4-c4ccc(C)cc4)c4ccccc34)ccn2)cc(C(=O)NCCN2CCOCC2)c1 [Example 1, 3-((4-((4-(3-(3-(tert-Butyl)-1-(p-tolyl)-1H-pyrazol-5-yl)ureido)naphthalen-1-yl)oxy)pyridin-2-yl)amino)-5-methoxy-N-(2-morpholinoethyl)benzamide] | 84.3 nM | 39.3% | −ve (−ve and +ve indicate that the value is below and above respectively, the no significant effect threshold, defined as 30% inhibition at 1 μg/mL at the time point indicated) | −ve (−ve and +ve indicate that the value is below and above respectively, the no significant effect threshold, defined as 30% inhibition at 1 μg/mL at the time point indicated) | 2.4 nM |
